Source: ChEMBL document CHEMBL1201862, “PubChem BioAssay data set” (2004)
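Tested at 5 concentrations; 48 h exposure; 96-well plates; endpoints linearly interpolated, else capped at highest concentration. At the GI50, growth is halved.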 Active and inactive are the calls of the source. Cut-off read from the data, not from the text of the source: active = GI50 up to about 1.1 µM and inactive = higher.

Legend:
Assay in all cases: NCI tumour cell line growth inhibition, 48 h
SK-OV-3 = tested on: SK-OV-3
SF-268 = tested on: SF-268
U-251 = tested on: U-251
UO-31 = tested on: UO-31
MOLT-4 = tested on: MOLT-4
SK-MEL-28 = tested on: SK-MEL-28
NCI-H226 = tested on: NCI-H226
KM12 = tested on: KM12
CAKI-1 = tested on: CAKI-1
SK-MEL-5 = tested on: SK-MEL-5
OVCAR-8 = tested on: OVCAR-8
UACC-257 = tested on: UACC-257
CCRF-CEM = tested on: CCRF-CEM
RPMI-8226 = tested on: RPMI-8226
HCT-15 = tested on: HCT-15
MCF7 = tested on: MCF7
BT-549 = tested on: BT-549
HOP-92 = tested on: HOP-92
MDA-N = tested on: MDA-N
NCI-H522 = tested on: NCI-H522
OVCAR-4 = tested on: OVCAR-4
SR = tested on: SR
SK-MEL-2 = tested on: SK-MEL-2
EKVX = tested on: EKVX
SNB-19 = tested on: SNB-19
UACC-62 = tested on: UACC-62
SF-539 = tested on: SF-539
Hs-578T = tested on: Hs-578T
A549 = tested on: A549
MDA-MB-435 = tested on: MDA-MB-435
SF-295 = tested on: SF-295
ACHN = tested on: ACHN
HT-29 = tested on: HT-29
HCT-116 = tested on: HCT-116
NCI-H460 = tested on: NCI-H460
Malme-3M = tested on: Malme-3M
HOP-62 = tested on: HOP-62
786-0 = tested on: 786-0
M14 = tested on: M14
T47D = tested on: T47D
SN12C = tested on: SN12C
DU-145 = tested on: DU-145
NCI-H23 = tested on: NCI-H23
K562 = tested on: K562
SNB-75 = tested on: SNB-75
NCI/ADR-RES = tested on: NCI/ADR-RES
IGROV-1 = tested on: IGROV-1
RXF 393 = tested on: RXF 393
SW-620 = tested on: SW-620
OVCAR-5 = tested on: OVCAR-5
COLO 205 = tested on: COLO 205
OVCAR-3 = tested on: OVCAR-3
MDA-MB-231 = tested on: MDA-MB-231
A498 = tested on: A498
PC-3 = tested on: PC-3
HL-60 = tested on: HL-60
LOX IMVI = tested on: LOX IMVI
TK-10 = tested on: TK-10
HCC 2998 = tested on: HCC 2998

`C1=N\c2ccc(cc2)-c2ccc(cc2)/N=C\c2ccc(cc2)OCc2cccc(n2)COc2ccc/1cc2` was tested, and the GI50 (SK-OV-3) was 61.2 µM (inactive), the GI50 (SF-268) was 16.1 µM (inactive) and the GI50 (U-251) was 45.5 µM (inactive). The GI50 (UO-31) was > 100 µM (inactive), the GI50 (MOLT-4) was 85.3 µM (inactive) and the GI50 (SK-MEL-28) was > 100 µM (inactive). For the same compound, the GI50 (NCI-H226) was 37 µM (inactive), the GI50 (KM12) was > 100 µM (inactive) and the GI50 (CAKI-1) was > 100 µM (inactive). The GI50 (SK-MEL-5) was > 100 µM (inactive), the GI50 (OVCAR-8) was 25.1 µM (inactive) and the GI50 (UACC-257) was > 100 µM (inactive). For the same compound, the GI50 (CCRF-CEM) was 97.7 µM (inactive), the GI50 (RPMI-8226) was > 100 µM (inactive) and the GI50 (HCT-15) was > 100 µM. For the same compound, the GI50 (MCF7) was > 100 µM (inactive), the GI50 (BT-549) was > 100 µM (inactive) and the GI50 (HOP-92) was > 100 µM (inactive). The GI50 (MDA-N) was > 100 µM (inactive), the GI50 (NCI-H522) was 34.5 µM (inactive) and the GI50 (OVCAR-4) was > 100 µM (inactive). For the same compound, the GI50 (SR) was > 100 µM (inactive), the GI50 (SK-MEL-2) was > 100 µM (inactive) and the GI50 (EKVX) was 45.8 µM (inactive). The GI50 (SNB-19) was 38.9 µM (inactive), the GI50 (UACC-62) was > 100 µM (inactive) and the GI50 (SF-539) was > 100 µM (inactive). For the same compound, the GI50 (Hs-578T) was 18.2 µM (inactive), the GI50 (A549) was > 100 µM (inactive) and the GI50 (MDA-MB-435) was > 100 µM (inactive). The GI50 (SF-295) was 79.4 µM (inactive), the GI50 (ACHN) was > 100 µM (inactive) and the GI50 (HT-29) was > 100 µM (inactive). For the same compound, the GI50 (HCT-116) was > 100 µM (inactive), the GI50 (NCI-H460) was > 100 µM (inactive) and the GI50 (Malme-3M) was 33 µM (inactive). The GI50 (HOP-62) was 27.3 µM (inactive), the GI50 (786-0) was > 100 µM (inactive) and the GI50 (M14) was > 100 µM (inactive). The GI50 (T47D) was > 100 µM (inactive), the GI50 (SN12C) was > 100 µM (inactive) and the GI50 (DU-145) was > 100 µM (inactive). For the same compound, the GI50 (NCI-H23) was > 100 µM (inactive), the GI50 (K562) was > 100 µM (inactive) and the GI50 (SNB-75) was 64.7 µM (inactive). The GI50 (NCI/ADR-RES) was 99.3 µM (inactive), the GI50 (IGROV-1) was > 100 µM (inactive) and the GI50 (RXF 393) was 42.2 µM (inactive). For the same compound, the GI50 (SW-620) was > 100 µM (inactive), the GI50 (OVCAR-5) was > 100 µM (inactive) and the GI50 (COLO 205) was > 100 µM (inactive). For the same compound, the GI50 (OVCAR-3) was > 100 µM (inactive), the GI50 (MDA-MB-231) was > 100 µM (inactive) and the GI50 (A498) was > 100 µM (inactive). The GI50 (PC-3) was > 100 µM (inactive) and the GI50 (HL-60) was > 100 µM (inactive).
In the case of `NCC(O)CSP(=O)(O)O` (stereo not drawn), the GI50 (SK-OV-3) is reported as > 100 µM (inactive), the GI50 (SF-268) is reported as > 100 µM (inactive) and the GI50 (U-251) is reported as > 100 µM (inactive). For the same compound, the GI50 (UO-31) was > 100 µM (inactive), the GI50 (MOLT-4) was > 100 µM (inactive) and the GI50 (SK-MEL-28) was > 100 µM (inactive). The GI50 (NCI-H226) was > 100 µM (inactive), the GI50 (KM12) was > 100 µM (inactive) and the GI50 (CAKI-1) was > 100 µM (inactive). The GI50 (SK-MEL-5) was > 100 µM (inactive), the GI50 (OVCAR-8) was > 100 µM (inactive) and the GI50 (UACC-257) was > 100 µM (inactive). The GI50 (CCRF-CEM) was > 100 µM (inactive), the GI50 (RPMI-8226) was > 100 µM (inactive) and the GI50 (HCT-15) was > 100 µM. The GI50 (MCF7) was > 100 µM (inactive), the GI50 (BT-549) was > 100 µM (inactive) and the GI50 (HOP-92) was > 100 µM (inactive). For the same compound, the GI50 (MDA-N) was > 100 µM (inactive), the GI50 (LOX IMVI) was > 100 µM (inactive) and the GI50 (NCI-H522) was > 100 µM (inactive). For the same compound, the GI50 (OVCAR-4) was > 100 µM (inactive), the GI50 (SR) was > 100 µM (inactive) and the GI50 (SK-MEL-2) was > 100 µM (inactive). The GI50 (EKVX) was > 100 µM (inactive), the GI50 (SNB-19) was > 100 µM (inactive) and the GI50 (UACC-62) was > 100 µM (inactive). For the same compound, the GI50 (Hs-578T) was > 100 µM (inactive), the GI50 (A549) was > 100 µM (inactive) and the GI50 (MDA-MB-435) was > 100 µM (inactive). For the same compound, the GI50 (SF-295) was > 100 µM (inactive), the GI50 (ACHN) was > 100 µM (inactive) and the GI50 (HT-29) was > 100 µM (inactive). For the same compound, the GI50 (HCT-116) was > 100 µM (inactive), the GI50 (NCI-H460) was > 100 µM (inactive) and the GI50 (Malme-3M) was > 100 µM (inactive). For the same compound, the GI50 (HOP-62) was > 100 µM (inactive), the GI50 (786-0) was > 100 µM (inactive) and the GI50 (M14) was > 100 µM (inactive). The GI50 (T47D) was > 100 µM (inactive), the GI50 (SN12C) was > 100 µM (inactive) and the GI50 (DU-145) was > 100 µM (inactive). The GI50 (NCI-H23) was > 100 µM (inactive), the GI50 (K562) was > 100 µM (inactive) and the GI50 (SNB-75) was > 100 µM (inactive). For the same compound, the GI50 (NCI/ADR-RES) was > 100 µM (inactive), the GI50 (IGROV-1) was > 100 µM (inactive) and the GI50 (RXF 393) was > 100 µM (inactive). The GI50 (SW-620) was > 100 µM (inactive), the GI50 (OVCAR-5) was > 100 µM (inactive) and the GI50 (COLO 205) was > 100 µM (inactive). The GI50 (OVCAR-3) was > 100 µM (inactive), the GI50 (MDA-MB-231) was > 100 µM (inactive) and the GI50 (A498) was > 100 µM (inactive). The GI50 (TK-10) was > 100 µM (inactive), the GI50 (PC-3) was > 100 µM (inactive) and the GI50 (HL-60) was > 100 µM (inactive).
With `N#CC12C(=O)N3C(=NC(c4ccco4)NC3c3ccco3)C1(C#N)C(c1ccco1)NC1=C2CCCC1` (stereo not drawn) the GI50 (SK-OV-3) was > 100 µM (inactive), the GI50 (SF-268) was > 100 µM (inactive) and the GI50 (U-251) was > 100 µM (inactive). For the same compound, the GI50 (UO-31) was > 100 µM (inactive), the GI50 (MOLT-4) was > 100 µM (inactive) and the GI50 (SK-MEL-28) was > 100 µM (inactive). For the same compound, the GI50 (NCI-H226) was > 100 µM (inactive), the GI50 (KM12) was > 100 µM (inactive) and the GI50 (CAKI-1) was > 100 µM (inactive). The GI50 (SK-MEL-5) was > 100 µM (inactive), the GI50 (OVCAR-8) was > 100 µM (inactive) and the GI50 (UACC-257) was > 100 µM (inactive). For the same compound, the GI50 (RPMI-8226) was > 100 µM (inactive), the GI50 (HCT-15) was > 100 µM and the GI50 (MCF7) was > 100 µM (inactive). The GI50 (BT-549) was > 100 µM (inactive), the GI50 (HOP-92) was > 100 µM (inactive) and the GI50 (MDA-N) was > 100 µM (inactive). For the same compound, the GI50 (LOX IMVI) was > 100 µM (inactive), the GI50 (NCI-H522) was 73.1 µM (inactive) and the GI50 (OVCAR-4) was > 100 µM (inactive). For the same compound, the GI50 (SR) was > 100 µM (inactive), the GI50 (SK-MEL-2) was > 100 µM (inactive) and the GI50 (EKVX) was > 100 µM (inactive). For the same compound, the GI50 (SNB-19) was > 100 µM (inactive), the GI50 (UACC-62) was > 100 µM (inactive) and the GI50 (Hs-578T) was > 100 µM (inactive). For the same compound, the GI50 (A549) was > 100 µM (inactive), the GI50 (MDA-MB-435) was > 100 µM (inactive) and the GI50 (SF-295) was > 100 µM (inactive). For the same compound, the GI50 (ACHN) was > 100 µM (inactive), the GI50 (HT-29) was > 100 µM (inactive) and the GI50 (HCT-116) was > 100 µM (inactive). The GI50 (NCI-H460) was > 100 µM (inactive), the GI50 (Malme-3M) was > 100 µM (inactive) and the GI50 (HOP-62) was > 100 µM (inactive). For the same compound, the GI50 (786-0) was > 100 µM (inactive), the GI50 (M14) was > 100 µM (inactive) and the GI50 (T47D) was > 100 µM (inactive). The GI50 (SN12C) was > 100 µM (inactive), the GI50 (DU-145) was > 100 µM (inactive) and the GI50 (NCI-H23) was > 100 µM (inactive). The GI50 (K562) was > 100 µM (inactive), the GI50 (NCI/ADR-RES) was > 100 µM (inactive) and the GI50 (IGROV-1) was > 100 µM (inactive). The GI50 (RXF 393) was > 100 µM (inactive), the GI50 (SW-620) was > 100 µM (inactive) and the GI50 (OVCAR-5) was > 100 µM (inactive). The GI50 (COLO 205) was > 100 µM (inactive), the GI50 (MDA-MB-231) was > 100 µM (inactive) and the GI50 (A498) was > 100 µM (inactive). For the same compound, the GI50 (TK-10) was > 100 µM (inactive), the GI50 (PC-3) was > 100 µM (inactive) and the GI50 (HCC 2998) was > 100 µM (inactive). For the same compound, the GI50 (HL-60) was > 100 µM (inactive).
